Measurements reported in patent EP0745083B1, “2-HETEROARYL-5,11-DIHYDRO-6H-DIPYRIDO [3,2-b:2',3'-e][1,4]DIAZEPINES AND THEIR USE IN THE PREVENTION OR TREATMENT OF HIV INFECTION” (BOEHRINGER INGELHEIM PHARMACEUTICALS INC., priority 1994, dated 1995).

Legend:
Format in all cases: biochemical, Human Immunodeficiency Virus (HIV-1)
[1] = target: T1, HIV-1 RT wild type (WT) enzyme (Human immunodeficiency virus type 1 group M subtype B, UniProt P03367); assay: Reverse Transcriptase (RT) Assay, wild type enzyme (RNA-dependent DNA polymerase activity); conditions: 1 µM compound; for inhibition at 1 µM: read-out: Reverse Transciptase Assay % inhibition (1 µM) WT
T1 construct: Reverse transcriptase enzyme from the LAV strain of Human Immunodeficiency Virus (HIV-1) (1) was isolated from the bacterial strain JM109; made in house; host or cells: E. coli JM109 (clone pBRTprt1+ in vector pIBI21, lac promoter)
Source text: Utilizing the Reverse Transcriptase (RT) Assay described below, compounds can be tested for their ability to inhibit the RNA-dependent DNA polymerase activity of HIV-1 RT. Certain specific compounds described in the Examples which appear below, were so tested.
(§1) Among the enzymes for which Human Immunodeficiency Virus (HIV-1) encodes is a reverse transcriptase (1), so-named because it transcribes a DNA copy from an RNA template. This activity can be quantitatively measured in a cell-free enzyme assay, which has been previously described (2), and is based upon the observation that reverse transcriptase is able to use a synthetic template [poly r(C) primed with oligo d(G)] to transcribe a radio-labelled, acid-precipitable DNA strand utilizing ^3H-dGTP as a substrate. The assay described below utilizes the wild type (WT) enzyme, which is the predominant form of the enzyme observed in patients infected with HIV-1. Utilization of mutant RT eraymes (Y181C and Y181L, prepared by site-directed mutagenesis in which the tyrosine residue at codon 181 has been replaced by a cysteine or a leucine residue, respectively) and analogous assay conditions allows compounds to be evaluated for their effectiveness at inhibiting these mutant enzymes.
Reverse transcriptase enzyme from the LAV strain of Human Immunodeficiency Virus (HIV-1) (1) was isolated from the bacterial strain JM109 (3) expressing the DNA clone pBRTprt1+ (2) which is under the control of the lac promotor in the expression vector pIBI21 (4). An overnight culture grown in 2XYT medium (37°C, 225 rpm) (5) supplemented with 100 µg/mL ampicillin for positive selection is inoculated at a 1:40 dilution into M9 medium supplemented with 10µg/mL thiamine, 0.5% casamino acids, and 50 µg/mL ampicillin (5). The culture is incubated (37°C, 225 rpm) until it reaches an OD540 of 0.3-0.4. At that time the repressor inhibitor IPTG (isopropyl β-D-thiogalactopyranoside) is added to 0.5mM, and the mixture is incubated for 2 additional hours. Bacteria are pelleted, resuspended in a 50mM Tris, 0.6mM EDTA, 0.375M NaCl buffer and digested by the addition of lysozyme (1mg/mL) for 30 minutes on ice. The cells are lysed by the addition of 0.2% NP-40 and brought to 1M NaCl.
After removal of the insoluble debris by centrifugation, the protein is precipitated by the addition of 3 volumes of saturated aqueous ammonium sulfate. The enzyme is pelleted, resuspended in RT buffer (50mM Tris pH 7.5, 1mM EDTA, 5mM DTT, 0.1% NP-40, 0.1M NaCI, and 50% glycerol), and stored at -70°C for further use.
The 2X concentrated stock reaction mixture is aliquoted and stored at -20°C. The mixture is stable and thawed for use in each assay. This enzyme assay has been adapted to a 96 well microtiter plate system, and has been previously described (6). Tris buffer (50 mM, pH 7.4), vehicle (solvent diluted to match the compound dilution), or compounds in vehicle are dispensed into 96-well microtiter plates (10µL/well; 3 wells/ compound). The HIV-1 RT enzyme is thawed, diluted in 50mM Tris pH 7.4 so that fifteen µL of diluted enzyme contain 0.001 Unit (one unit is that amount of enzyme to transform 1 micromole of substrate per minute at 25°C), and fifteen µL are dispensed per well. Twenty µL of 0.12-0.5M EDTA are added to the first three wells of the microtiter plate. EDTA chelates the Mg^++ present and prevents reverse transcription. This group serves as background polymerization which is subtracted from all other groups. Twenty-five ul of the 2X reaction mixture are added to all wells and the assay is allowed to incubate at room temperature for 60 minutes. The assay is terminated by precipitating the DNA in each well with 50µL of 10% trichloracetic acid (TCA) (10% w/v) in sodium pyrophosphate (1% w/v). The microtiter plate is incubated for 15 minutes at 4°C and the precipitate is fixed onto #30 glass fiber paper (Schleicher & Schuell) using a Skatron semi-automatic harvester. […]

HIV-1 RT Y181C = target: T2, HIV-1 RT Y181C (Human immunodeficiency virus type 1 group M subtype B, UniProt P03367, Y780C); assay: Reverse Transcriptase (RT) Assay, Y181C mutant enzyme; conditions: 1 µM compound; for inhibition at 1 µM: read-out: Reverse Transciptase Assay % inhibition (1 µM) Y181C
T2 construct: Utilization of mutant RT eraymes (Y181C and Y181L, prepared by site-directed mutagenesis); made in house
Source text: as §1
The 2X concentrated stock reaction mixture is aliquoted and stored at -20°C. The mixture is stable and thawed for use in each assay. This enzyme assay has been adapted to a 96 well microtiter plate system, and has been previously described (6). Tris buffer (50 mM, pH 7.4), vehicle (solvent diluted to match the compound dilution), or compounds in vehicle are dispensed into 96-well microtiter plates (10µL/well; 3 wells/ compound). The HIV-1 RT enzyme is thawed, diluted in 50mM Tris pH 7.4 so that fifteen µL of diluted enzyme contain 0.001 Unit (one unit is that amount of enzyme to transform 1 micromole of substrate per minute at 25°C), and fifteen µL are dispensed per well. Twenty µL of 0.12-0.5M EDTA are added to the first three wells of the microtiter plate. EDTA chelates the Mg^++ present and prevents reverse transcription. This group serves as background polymerization which is subtracted from all other groups. Twenty-five ul of the 2X reaction mixture are added to all wells and the assay is allowed to incubate at room temperature for 60 minutes. The assay is terminated by precipitating the DNA in each well with 50µL of 10% trichloracetic acid (TCA) (10% w/v) in sodium pyrophosphate (1% w/v). The microtiter plate is incubated for 15 minutes at 4°C and the precipitate is fixed onto #30 glass fiber paper (Schleicher & Schuell) using a Skatron semi-automatic harvester. The filters are then washed with additional TCA (5%) containing sodium pyrophosphate (1%), rinsed with aqueous ethanol (70%), dried, and transferred to scintillation vials (6). Each vial receives 2 mL of scintillation cocktail and is counted in a Beckman beta counter. The calculation for percent inhibition is as follows: % inhibition =(CPM Mean Test Value - CPM Mean Control Value X100)/(CPM Mean Control Value) [formula]

HIV-1 RT Y188L = target: T3, HIV-1 RT Y188L (Human immunodeficiency virus type 1 group M subtype B, UniProt P03367, Y787L); assay: Reverse Transcriptase (RT) Assay, Y188L mutant enzyme; conditions: 1 µM compound
T3 construct: effective against the reverse transcriptase of many mutant viruses; made in house

Molecule	Reverse Transciptase Assay % inhibition (1 µM) WT [1]	Reverse Transciptase Assay % inhibition (1 µM) Y181C (HIV-1 RT Y181C)	Reverse Transciptase Assay % inhibition (1 µM) Y188L (HIV-1 RT Y188L)	inhibition at 1 µM [1]	inhibition at 1 µM (HIV-1 RT Y181C)
2-(1-Carbamylpyrazol-3-yl)-5,11-dihydro-11-ethyl-5-methyl-6H-dipyrido[3,2-b:2',3'-e][1,4]-diazepin-6-one [Example 7]	94%	84%	52%	–	–
CCN1c2ncccc2C(=O)N(C)c2ccc(-c3cnn(C)c3)nc21 [Example 3, 5,11-Dihydro-11-ethyl-5-methyl-2-(1-methylpyrazol-4-yl)-6H-dipyrido[3,2-b:2',3'-e][1,4]-diazepin-6-one]	–	–	24%	63%	36%
CCN1c2ncccc2C(=O)N(C)c2ccc(-c3cnn(C(C)=O)c3)nc21 [Example 8, 2-(1-Acetylpyrazol-4-yl)-5,11-dihydro-11-ethyl-5-methyl-6H-dipyrido[3,2-b:2',3'-e][1,4] diazepin-6-one]	–	–	80%	96%	80%
CCN1c2ncccc2C(=O)N(C)c2ccc(-c3cc[nH]n3)nc21 [Example 9, 5,11-Dihydro-11-ethyl-5-methyl-2-(3-pyrazolyl)-6H-dipyrido[3,2-b:2',3'-e][1,4]diazepin-6-one]	–	–	20%	67%	67%
CCN1c2ncccc2C(=O)N(C)c2ccc(-c3c[nH]nc3C)nc21 [Example 10, 5,11-Dihydro-11-ethyl-5-methyl-2-(3-methylpyrazol-4-yl)-6H-dipyrido[3,2-b:2',3'-e][1,4]-diazepin-6-one]	–	–	66%	94%	73%
CCN1c2ncccc2C(=O)N(C)c2ccc(-c3cccn3C)nc21 [Example 11, 5,11-Dihydro-11-ethyl-5-methyl-2-(1-methylpyrrol-2-yl)-6H-dipyrido[3,2-b:2',3'-e][1,4]-diazepin-6-one]	–	–	–	81%	–
CCN1c2ncccc2C(=O)N(C)c2ccc(-c3cccn3C(C)=O)nc21 [Example 14, 2-(1-Acetylpyrrol-2-yl)-5,11-dihydro-11-ethyl-5-methyl-6H-dipyrido[3,2-b:2',3'-e][1,4]-diazepin-6-one]	–	–	23%	74%	51%
CCN1c2ncccc2C(=O)N(C)c2ccc(-c3cc[nH]c3C(C)=O)nc21 [Example 15, 2-(2-Acetylpyrrol-3-yl)-5,11-dihydro-11-ethyl-5-methyl-6H-dipyrido[3,2-b:2',3'-e][1,4]-diazepin-6-one]	–	–	10%	52%	59%
CCOC(=O)c1cc(-c2ccc3c(n2)N(CC)c2ncccc2C(=O)N3C)c[nH]1 [Example 16, 5,11-Dihydro-2-[2-(ethoxycarbonyl)pyrrol-4-yl]-11-ethyl-5-methyl-6H-dipyrido-[3,2-b:2',3'-e][1,4]diazepin-6-one]	–	–	–	83%	74%
CCN1c2ncccc2C(=O)N(C)c2ccc(-c3c[nH]c(C(C)=O)c3)nc21 [Example 17, 2-(2-Acetylpyrrol-4-yl)-5,11-dihydro-11-ethyl-5-methyl-6H-dipyrido[3,2-b:2',3'-e][1,4]-diazepin-6-one]	–	–	27%	78%	62%
CCN1c2ncccc2C(=O)N(C)c2ccc(-c3cc[nH]c3C#N)nc21 [Example 18, 2-(2-Cyanopyrrol-3-yl)-5,11-dihydro-11-ethyl-5-methyl-6H-dipyrido[3,2-b:2',3'-e][1,4]-diazepin-6-one]	–	–	57%	87%	82%
CCN1c2ncccc2C(=O)N(C)c2ccc(-c3c[nH]c(C#N)c3)nc21 [Example 19, 2-(2-Cyanopyrrol-4-yl)-5,11-dihydro-11-ethyl-5-methyl-6H-dipyrido[3,2-b:2',3'-e][1,4]-diazepin-6-one]	–	–	55%	91%	75%
CCN1c2ncccc2C(=O)N(C)c2ccc(-c3ccn(C)c3)nc21 [Example 20, 5,11-Dihydro-11-ethyl-5-methyl-2-(1-methylpyrrol-3-yl)-6H-dipyrido[3,2-b:2',3'-e][1,4]-diazepin-6-one]	–	–	26%	65%	36%
CCN1c2ncccc2C(=O)N(C)c2ccc(-c3c[nH]c(C(=O)O)c3)nc21 [Example 21, 2-(2-Carboxypyrrol-4-yl)-5,11-dihydro-11-ethyl-5-methyl-6H-dipyrido[3,2-b:2',3'-e][1,4]-diazepin-6-one]	–	–	46%	33%	28%
CCN1c2ncccc2C(=O)N(C)c2ccc(-c3c[nH]c(C(N)=O)c3)nc21 [Example 22, 2-(2-Carbamylpyrrol-4-yl)-5,11-dihydro-11-ethyl-5-methyl-6H-dipyrido[3,2-b:2',3'-e][1,4]-diazepin-6-one]	–	–	30%	76%	72%
CCN1C(=O)c2cccnc2N(C)c2nc(-c3ccc[nH]3)ccc21 [Example 23, 5,11-Dihydro-5-ethyl-11-methyl-2-(2-pyrrolyl)-6H-dipyrido[3,2-b:2',3'-e][1,4]diazepin-6-one]	–	–	47%	58%	37%
